Experimental data from paper PMC8178808, “Exploring conformational preferences of proteins: ionic liquid effects on the energy landscape of avidin” (Chemical Science, 2020).

Target: T1, avidin (unmodified, native) (Gallus gallus, UniProt P02701)
T1 construct: gene AVD; natural secreted glycoprotein from egg white (mature chain, signal peptide removed), commercial lyophilised (Merck), untagged; homotetramer, one ligand site per monomer
Test: UV-Vis titration at […] nm, non-linear regression (Hill-Langmuir)
Format: binding
Conditions: read-out: Unmodified avidin / K d (×10^-5 mol dm^-3)

T1 sequence (P02701 25-152): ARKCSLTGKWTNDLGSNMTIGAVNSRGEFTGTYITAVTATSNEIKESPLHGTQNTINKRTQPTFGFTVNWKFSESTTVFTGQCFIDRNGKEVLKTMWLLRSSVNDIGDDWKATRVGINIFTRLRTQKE

- Kd: 11 µM
Compound: O=C(O)c1ccccc1N=Nc1ccc(O)cc1 [HABA]
